According to ChEMBL document CHEMBL1201862, “PubChem BioAssay data set” (2004):
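Five concentrations, 48 hours, 96-well plates. At the GI50, growth is halved.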 Calls of active or inactive are those of the source. No stated cut-off is given here; in the data, active = GI50 up to about 1.1 µM and inactive = higher.

How the values were obtained:
Test in all cases: NCI-60 cell line screen, 48 h
786-0 = tested on: 786-0
A498 = tested on: A498
A549 = tested on: A549
ACHN = tested on: ACHN
CAKI-1 = tested on: CAKI-1
CCRF-CEM = tested on: CCRF-CEM
DLD-1 = tested on: DLD-1
DMS-114 = tested on: DMS-114
DMS-273 = tested on: DMS-273
EKVX = tested on: EKVX
HCC 2998 = tested on: HCC 2998
HCT-116 = tested on: HCT-116
HCT-15 = tested on: HCT-15
HL-60 = tested on: HL-60
HOP-18 = tested on: HOP-18
HOP-62 = tested on: HOP-62
HOP-92 = tested on: HOP-92
HT-29 = tested on: HT-29
IGROV-1 = tested on: IGROV-1
K562 = tested on: K562
KM-20L2 = tested on: KM-20L2
KM12 = tested on: KM12
LOX IMVI = tested on: LOX IMVI
LXFL 529 = tested on: LXFL 529
M14 = tested on: M14
M19-MEL = tested on: M19-MEL
MOLT-4 = tested on: MOLT-4
Malme-3M = tested on: Malme-3M
NCI-H226 = tested on: NCI-H226
NCI-H23 = tested on: NCI-H23
NCI-H460 = tested on: NCI-H460
NCI-H522 = tested on: NCI-H522
OVCAR-3 = tested on: OVCAR-3
OVCAR-4 = tested on: OVCAR-4
OVCAR-5 = tested on: OVCAR-5
OVCAR-8 = tested on: OVCAR-8
RPMI-8226 = tested on: RPMI-8226
SF-268 = tested on: SF-268
SF-295 = tested on: SF-295
SF-539 = tested on: SF-539
SK-MEL-28 = tested on: SK-MEL-28
SK-MEL-2 = tested on: SK-MEL-2
SK-MEL-5 = tested on: SK-MEL-5
SK-OV-3 = tested on: SK-OV-3
SNB-19 = tested on: SNB-19
SNB-75 = tested on: SNB-75
SNB-78 = tested on: SNB-78
SW-620 = tested on: SW-620
TK-10 = tested on: TK-10
U-251 = tested on: U-251
UACC-257 = tested on: UACC-257
UACC-62 = tested on: UACC-62
UO-31 = tested on: UO-31
COLO 205 = tested on: COLO 205
RXF 393 = tested on: RXF 393
SN12C = tested on: SN12C
SR = tested on: SR
XF498 = tested on: XF498

SMILES: CC(C)(C)c1cc(C(P(=O)(O)O)P(=O)(O)O)cc(C(C)(C)C)c1O
- GI50 (786-0): > 100 µM (inactive)
- GI50 (A498): > 100 µM (inactive)
- GI50 (A549): > 100 µM (inactive)
- GI50 (ACHN): > 100 µM (inactive)
- GI50 (CAKI-1): > 100 µM (inactive)
- GI50 (CCRF-CEM): > 100 µM (inactive)
- GI50 (DLD-1): > 100 µM (inactive)
- GI50 (DMS-114): > 100 µM (inactive)
- GI50 (DMS-273): > 100 µM (inactive)
- GI50 (EKVX): > 100 µM (inactive)
- GI50 (HCC 2998): > 100 µM (inactive)
- GI50 (HCT-116): > 100 µM (inactive)
- GI50 (HCT-15): > 100 µM
- GI50 (HL-60): > 100 µM (inactive)
- GI50 (HOP-18): > 100 µM (inactive)
- GI50 (HOP-62): > 100 µM (inactive)
- GI50 (HOP-92): > 100 µM (inactive)
- GI50 (HT-29): > 100 µM (inactive)
- GI50 (IGROV-1): > 100 µM (inactive)
- GI50 (K562): > 100 µM (inactive)
- GI50 (KM-20L2): > 100 µM (inactive)
- GI50 (KM12): > 100 µM (inactive)
- GI50 (LOX IMVI): > 100 µM (inactive)
- GI50 (LXFL 529): > 100 µM (inactive)
- GI50 (M14): > 100 µM (inactive)
- GI50 (M19-MEL): > 100 µM (inactive)
- GI50 (MOLT-4): > 100 µM (inactive)
- GI50 (Malme-3M): > 10 µM (inactive)
- GI50 (NCI-H226): > 100 µM (inactive)
- GI50 (NCI-H23): > 100 µM (inactive)
- GI50 (NCI-H460): > 100 µM (inactive)
- GI50 (NCI-H522): > 100 µM (inactive)
- GI50 (OVCAR-3): > 100 µM (inactive)
- GI50 (OVCAR-4): > 100 µM (inactive)
- GI50 (OVCAR-5): > 100 µM (inactive)
- GI50 (OVCAR-8): > 100 µM (inactive)
- GI50 (RPMI-8226): > 100 µM (inactive)
- GI50 (SF-268): > 100 µM (inactive)
- GI50 (SF-295): > 100 µM (inactive)
- GI50 (SF-539): > 100 µM (inactive)
- GI50 (SK-MEL-28): > 100 µM (inactive)
- GI50 (SK-MEL-2): > 100 µM (inactive)
- GI50 (SK-MEL-5): > 100 µM (inactive)
- GI50 (SK-OV-3): > 100 µM (inactive)
- GI50 (SNB-19): > 100 µM (inactive)
- GI50 (SNB-75): 95.1 µM (inactive)
- GI50 (SNB-78): > 100 µM (inactive)
- GI50 (SW-620): > 100 µM (inactive)
- GI50 (TK-10): > 100 µM (inactive)
- GI50 (U-251): > 100 µM (inactive)
- GI50 (UACC-257): > 100 µM (inactive)
- GI50 (UACC-62): > 100 µM (inactive)
- GI50 (UO-31): > 100 µM (inactive)

SMILES: COC(=O)C1=C(C)N(NC(=O)Nc2ccccc2)C2(N)N(NC(=O)Nc3ccccc3)C(C)=C(C(=O)OC)C12C(=O)OC (stereo not drawn)
- GI50 (786-0): 66.7 µM (inactive)
- GI50 (A498): 59.6 µM (inactive)
- GI50 (A549): > 100 µM (inactive)
- GI50 (ACHN): 98.2 µM (inactive)
- GI50 (CAKI-1): 23.7 µM (inactive)
- GI50 (CCRF-CEM): 35.2 µM (inactive)
- GI50 (COLO 205): 34.7 µM (inactive)
- GI50 (DLD-1): 55.7 µM (inactive)
- GI50 (DMS-114): 77.1 µM (inactive)
- GI50 (DMS-273): 40.3 µM (inactive)
- GI50 (HCC 2998): 39.4 µM (inactive)
- GI50 (HCT-116): > 100 µM (inactive)
- GI50 (HCT-15): 76.4 µM
- GI50 (HOP-18): 81.8 µM (inactive)
- GI50 (HOP-92): > 100 µM (inactive)
- GI50 (HT-29): 65.2 µM (inactive)
- GI50 (IGROV-1): 24.5 µM (inactive)
- GI50 (K562): 51.9 µM (inactive)
- GI50 (KM-20L2): > 100 µM (inactive)
- GI50 (LOX IMVI): 72.6 µM (inactive)
- GI50 (LXFL 529): 62.5 µM (inactive)
- GI50 (M14): 47.5 µM (inactive)
- GI50 (M19-MEL): 25.1 µM (inactive)
- GI50 (MOLT-4): 27.1 µM (inactive)
- GI50 (Malme-3M): 84.5 µM (inactive)
- GI50 (NCI-H226): 60.4 µM (inactive)
- GI50 (NCI-H23): > 100 µM (inactive)
- GI50 (NCI-H460): 38.3 µM (inactive)
- GI50 (NCI-H522): 32.3 µM (inactive)
- GI50 (OVCAR-3): 54.2 µM (inactive)
- GI50 (OVCAR-4): 64.9 µM (inactive)
- GI50 (OVCAR-5): > 100 µM (inactive)
- GI50 (OVCAR-8): 71 µM (inactive)
- GI50 (RPMI-8226): 26.8 µM (inactive)
- GI50 (RXF 393): 75.9 µM (inactive)
- GI50 (SF-268): > 100 µM (inactive)
- GI50 (SK-MEL-28): > 100 µM (inactive)
- GI50 (SK-MEL-2): 36 µM (inactive)
- GI50 (SK-OV-3): > 100 µM (inactive)
- GI50 (SN12C): 63.2 µM (inactive)
- GI50 (SNB-75): 36.1 µM (inactive)
- GI50 (SNB-78): 26.1 µM (inactive)
- GI50 (SW-620): 63.4 µM (inactive)
- GI50 (TK-10): 69.3 µM (inactive)
- GI50 (U-251): 43.3 µM (inactive)
- GI50 (UACC-257): 16.4 µM (inactive)
- GI50 (UACC-62): 41.3 µM (inactive)
- GI50 (UO-31): > 100 µM (inactive)

SMILES: COC(=O)C(/C(=N/N)C(=O)Nc1cc(Cl)ccc1Cl)c1nc2ccc([N+](=O)[O-])cc2nc1O (stereo not drawn)
- GI50 (786-0): > 100 µM (inactive)
- GI50 (A498): 58.5 µM (inactive)
- GI50 (A549): > 100 µM (inactive)
- GI50 (ACHN): 39.1 µM (inactive)
- GI50 (CCRF-CEM): 25 µM (inactive)
- GI50 (COLO 205): > 100 µM (inactive)
- GI50 (DMS-114): 50.2 µM (inactive)
- GI50 (DMS-273): 57.3 µM (inactive)
- GI50 (EKVX): 72.8 µM (inactive)
- GI50 (HCC 2998): 74.6 µM (inactive)
- GI50 (HCT-116): > 100 µM (inactive)
- GI50 (HCT-15): 76.4 µM
- GI50 (HL-60): > 100 µM (inactive)
- GI50 (HOP-62): > 100 µM (inactive)
- GI50 (HOP-92): 30.7 µM (inactive)
- GI50 (HT-29): > 100 µM (inactive)
- GI50 (IGROV-1): > 100 µM (inactive)
- GI50 (K562): 2.74 µM (inactive)
- GI50 (KM-20L2): 49.9 µM (inactive)
- GI50 (KM12): > 100 µM (inactive)
- GI50 (LOX IMVI): > 100 µM (inactive)
- GI50 (LXFL 529): 48 µM (inactive)
- GI50 (M14): 72.3 µM (inactive)
- GI50 (MOLT-4): 17 µM (inactive)
- GI50 (Malme-3M): > 100 µM (inactive)
- GI50 (NCI-H226): > 100 µM (inactive)
- GI50 (NCI-H23): > 100 µM (inactive)
- GI50 (NCI-H460): > 100 µM (inactive)
- GI50 (NCI-H522): 21.3 µM (inactive)
- GI50 (OVCAR-3): > 100 µM (inactive)
- GI50 (OVCAR-4): > 100 µM (inactive)
- GI50 (OVCAR-5): > 100 µM (inactive)
- GI50 (OVCAR-8): > 100 µM (inactive)
- GI50 (RPMI-8226): > 100 µM (inactive)
- GI50 (SF-268): 92.3 µM (inactive)
- GI50 (SF-295): > 100 µM (inactive)
- GI50 (SF-539): 93.3 µM (inactive)
- GI50 (SK-MEL-28): > 100 µM (inactive)
- GI50 (SK-MEL-2): > 100 µM (inactive)
- GI50 (SK-MEL-5): > 100 µM (inactive)
- GI50 (SK-OV-3): > 100 µM (inactive)
- GI50 (SN12C): > 100 µM (inactive)
- GI50 (SNB-19): > 100 µM (inactive)
- GI50 (SNB-78): > 100 µM (inactive)
- GI50 (SR): > 100 µM (inactive)
- GI50 (SW-620): > 100 µM (inactive)
- GI50 (TK-10): > 100 µM (inactive)
- GI50 (U-251): > 100 µM (inactive)
- GI50 (UACC-257): > 100 µM (inactive)
- GI50 (UACC-62): > 100 µM (inactive)
- GI50 (UO-31): 40 µM (inactive)
- GI50 (XF498): > 100 µM (inactive)
